Test [1] concerns the target Olfr738 (Mus musculus, UniProt L7N1X7). Put plainly: Indole antagonist dose-response, cAMP HTRF in HEK293T, vs indole EC80. It is filed as cell-based. The conditions noted are these: vs indole EC80; for IC50: Table 22, first listing (r7-r45), read-out: Olfr738 IC50. A general note: TR-FRET usually uses a lanthanide donor and a delayed reading to cut background.
Test [2] deals with Olfr740 (Mus musculus, UniProt E9PV79). Described as above. It is filed as cell-based. The conditions noted are these: vs indole EC80; for Emax: HEK-293T, read-out: Olfr740 % Inhibition; for IC50: Table 22, first listing (r7-r45), read-out: Olfr740 IC50.
In test [3] the target is Olfr741 (Mus musculus, UniProt L7N1Y5). The description is as above. The format is cell-based.
The target of test [4] is Olfr742 (Mus musculus, UniProt A2RTP5). The test is described as above. It is filed as cell-based. The conditions noted are these: vs indole EC80; for Emax: HEK-293T, read-out: Olfr742 % Inhibition.
In test [5] the target is Olfr748 (Mus musculus, UniProt E9Q9Z0). The description is as above. The format is cell-based. As to conditions: Table 23.
For test [6], the target named is Olfr739 (Mus musculus, UniProt E9Q1P0). The description is as above. As to conditions: for IC50: Table 22, first listing (r7-r45). It is filed as cell-based. How it is done: (§1) Functional dose-response experiments were performed to identify compounds capable of antagonizing indole-sensitive receptors previously identified (U.S. Pat. No. 9,914,760 B2). Using a cell-based assay, mouse receptor Olfr738, Olfr739, Olfr740, Olfr741, 0fr742, Olfr743, Olfr744, Olfr746, Olfr748 and Olfr749 were tested in an HEK293T cell line wherein the endogenous RTP1 gene has been activated and the odorant receptor chaperone was expressed (described in WO2016201153A1). The receptor genes were tagged with a Flag-Rho tag combination. Receptor genes were co-transfected with the canonical olfactory human G-protein alpha subunit Golf gene. Co-expression of the human Golf activates the Gs transduction pathway that leads to an internal cAMP increase upon binding to the appropriate ligand (indole here). Odorant-induced activity was detected by measuring the cAMP increase in the cytosol using an HTRF based kit (CisBio, cAMP dynamic 2 kit, cat. 62AM4PEJ). The receptors were exposed to binary mixtures of increasing concentrations of the test compounds in the presence of a potent activation concentration of indole (EC80) for each receptor. […] All the compounds listed decreased the indole induced activity of at least one receptor.

The target in test [7] is Olfr743 (Mus musculus, UniProt L7N1Y2). Described as above. The format is cell-based. The conditions noted are these: Table 23. How it is done:
as §1

The target of test [8] is T1, Olfr744 (Mus musculus, UniProt Q7TRM0).
T1 construct: Flag; Rho tag; expressed in transfected cells
T1 sequence (Q7TRM0 1-323): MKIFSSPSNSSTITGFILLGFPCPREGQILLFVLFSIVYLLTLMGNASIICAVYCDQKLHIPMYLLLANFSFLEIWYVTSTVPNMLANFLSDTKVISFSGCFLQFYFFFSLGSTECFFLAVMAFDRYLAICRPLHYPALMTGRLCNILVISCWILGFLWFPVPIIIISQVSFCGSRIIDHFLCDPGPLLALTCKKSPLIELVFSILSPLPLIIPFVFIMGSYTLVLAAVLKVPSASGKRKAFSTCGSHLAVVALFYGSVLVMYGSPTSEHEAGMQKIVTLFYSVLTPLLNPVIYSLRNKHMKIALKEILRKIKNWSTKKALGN
Described as above. The format is cell-based. As to conditions: Table 23. As for the experimental part:
as §1

For test [9], the target named is T2, Olfr746 (Mus musculus, UniProt E9Q840).
T2 construct: Flag; Rho tag; expressed in transfected cells
T2 sequence (E9Q840 1-314): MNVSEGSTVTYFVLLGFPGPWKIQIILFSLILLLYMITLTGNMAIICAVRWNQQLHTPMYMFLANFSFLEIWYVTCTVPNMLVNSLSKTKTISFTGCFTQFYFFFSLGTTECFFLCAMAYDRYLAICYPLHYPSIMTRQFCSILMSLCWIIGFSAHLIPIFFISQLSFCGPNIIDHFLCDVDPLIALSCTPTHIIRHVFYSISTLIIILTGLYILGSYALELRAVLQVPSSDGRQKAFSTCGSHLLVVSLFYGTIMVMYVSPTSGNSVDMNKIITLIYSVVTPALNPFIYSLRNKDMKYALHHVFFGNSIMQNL
The test is described as above. The format is cell-based. The conditions noted are these: Table 23. As for the experimental part:
as §1

Test [10] addresses T3, Olfr749 (Mus musculus, UniProt E9Q438).
T3 construct: Flag; Rho tag; expressed in transfected cells
T3 sequence (E9Q438 1-313): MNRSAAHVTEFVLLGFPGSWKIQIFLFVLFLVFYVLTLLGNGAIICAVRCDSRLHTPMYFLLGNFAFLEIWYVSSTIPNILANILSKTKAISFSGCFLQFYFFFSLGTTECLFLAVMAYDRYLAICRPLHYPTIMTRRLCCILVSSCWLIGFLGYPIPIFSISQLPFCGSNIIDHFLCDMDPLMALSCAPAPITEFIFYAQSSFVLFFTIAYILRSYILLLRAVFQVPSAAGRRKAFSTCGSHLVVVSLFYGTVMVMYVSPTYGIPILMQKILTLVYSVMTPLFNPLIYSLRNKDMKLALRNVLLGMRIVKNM
The test is described as above. It is filed as cell-based. The conditions noted are these: Table 23. As for the experimental part: as §1

For test [11], the target named is T4, OR51E1 olfactory receptor (Homo sapiens, UniProt Q8TCB6).
T4 construct: expressed in transfected cells
T4 sequence (Q8TCB6 1-318): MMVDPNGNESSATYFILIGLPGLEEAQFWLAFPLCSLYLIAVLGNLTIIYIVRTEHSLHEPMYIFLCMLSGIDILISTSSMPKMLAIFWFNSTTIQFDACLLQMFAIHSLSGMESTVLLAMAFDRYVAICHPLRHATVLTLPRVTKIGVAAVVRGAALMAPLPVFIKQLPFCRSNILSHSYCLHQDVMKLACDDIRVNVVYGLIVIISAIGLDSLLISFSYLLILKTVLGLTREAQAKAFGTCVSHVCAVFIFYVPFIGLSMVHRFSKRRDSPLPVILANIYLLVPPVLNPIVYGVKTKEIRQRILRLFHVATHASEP
The experiment in a line: Butyric acid olfactory receptor antagonist cell-based dose-response vs butyric acid EC80. The conditions noted are these: Table 20, spiro analogues; for Emax: read-out: Inhibition (%).

Test [12] relates to butyric acid malodor perception. Put plainly: Human sensory panel, perceived intensity of butyric acid. The conditions noted are these: Table 20. It is filed as in vivo. As for the experimental part:
The pleasantness of the compounds delivered alone (triangles, dashed-line) and in a mixture with butyric acid at isointense concentrations (squares, solid line). Many of these compounds are shown to inhibit the activity of a butyric acid olfactory receptor.
Malodor receptor antagonist systems and compositions were evaluated at a gas phase concentration of 3.4 microg/1 air. The sensory method to evaluate compositions required the use of specially designed air dilution olfactometers to achieve well controlled and stable gas phase concentrations of the compositions and of the malodor to the group of test subjects.
The 30 subjects first evaluated the malodor reconstitution alone and then rated the 3 attributes “Freshness”, “Pleasantness” and “malodor” (the malodor character) on a 0 to 10 scale. The next evaluation was performed 30 seconds later to avoid odor adaptation, the malodor reconstitution was injected together with the test composition in the olfactometer. Ratings for the same descriptors recorded.

Test [13] concerns geonol earthy/moss odor perception. The experiment in a line: Human sensory performance of test compounds with and without geonol. The format is in vivo. As to conditions: Test Compound Only. In a few lines:
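Panelists first learned the earthy/moss quality from a geonol-only reference, then rated pleasantness, earthy/moss intensity and overall intensity of geonol alone, antagonist alone, and geonol mixed with isointense or low-intensity antagonist on a 0-10 linear scale. Samples were presented in glass jars in randomized order with two-minute intervals.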

The subject of test [14] is 1-octen-3-ol mushroom/earthy/fungal odor perception. The experiment in a line: Human sensory performance of test compounds with and without 1-octen-3-ol. It is filed as in vivo. The conditions noted are these: Test Compound Only.
For test [15], the system named is geonol receptors Olfr339, Olfr1487, Olfr1A1, OR11A1, Olfr96. The experiment in a line: Antagonists of geonol receptors (Example 11). On the set-up: Inhibition(%): concentration or dose not given beside the values. As to conditions: Table 18. The format is cell-based, mouse and human.
For test [16], the system named is OR2W1 or the OR1A1 olfactory receptor. Put plainly: 1-octen-3-ol olfactory receptor antagonist cell-based dose-response vs 1-octen-3-ol EC80.
Text: Each cell line was screened with a volatile compound library for their inhibitory properties and potential 1-octen-3-ol smell inhibition.
Single concentration monitoring of the 1-octen-3-ol induced cell activity in the presence or absence of a test compound allowed for the identification of compounds with a putative suppression or inhibitory effect.
[17] abbreviates: Table 22, second listing of the same compounds.

Like-named read-outs stand apart in the source and are kept apart here.

Sequence of Olfr741 (L7N1Y5 entry or part of it): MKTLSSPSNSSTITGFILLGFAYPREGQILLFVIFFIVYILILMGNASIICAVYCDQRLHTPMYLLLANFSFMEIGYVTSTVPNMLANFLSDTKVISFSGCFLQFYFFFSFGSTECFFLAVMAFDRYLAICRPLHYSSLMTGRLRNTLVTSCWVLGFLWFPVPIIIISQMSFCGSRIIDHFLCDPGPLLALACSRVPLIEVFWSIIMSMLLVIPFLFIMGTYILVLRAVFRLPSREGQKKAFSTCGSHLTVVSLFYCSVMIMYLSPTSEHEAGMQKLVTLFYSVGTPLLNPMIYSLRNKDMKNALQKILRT
Sequence of Olfr742 (A2RTP5 entry or part of it): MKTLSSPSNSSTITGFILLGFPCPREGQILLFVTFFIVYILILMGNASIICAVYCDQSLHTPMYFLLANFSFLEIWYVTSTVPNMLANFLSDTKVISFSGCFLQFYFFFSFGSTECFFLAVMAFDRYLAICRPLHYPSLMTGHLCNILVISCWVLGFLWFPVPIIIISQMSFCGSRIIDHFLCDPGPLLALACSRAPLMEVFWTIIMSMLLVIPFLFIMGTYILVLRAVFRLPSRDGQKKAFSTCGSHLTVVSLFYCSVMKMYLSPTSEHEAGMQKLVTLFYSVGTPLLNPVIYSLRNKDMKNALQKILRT
Sequence of Olfr748 (E9Q9Z0 entry or part of it): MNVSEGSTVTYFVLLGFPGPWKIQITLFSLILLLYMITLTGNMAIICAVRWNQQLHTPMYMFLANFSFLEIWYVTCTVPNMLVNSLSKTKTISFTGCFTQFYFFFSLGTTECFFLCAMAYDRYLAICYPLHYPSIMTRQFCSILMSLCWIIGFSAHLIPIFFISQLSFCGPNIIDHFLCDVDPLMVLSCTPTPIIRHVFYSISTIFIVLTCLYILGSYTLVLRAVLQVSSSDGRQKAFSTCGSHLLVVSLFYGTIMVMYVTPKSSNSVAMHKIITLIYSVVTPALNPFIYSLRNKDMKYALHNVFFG
Sequence of Olfr739 (E9Q1P0 entry or part of it): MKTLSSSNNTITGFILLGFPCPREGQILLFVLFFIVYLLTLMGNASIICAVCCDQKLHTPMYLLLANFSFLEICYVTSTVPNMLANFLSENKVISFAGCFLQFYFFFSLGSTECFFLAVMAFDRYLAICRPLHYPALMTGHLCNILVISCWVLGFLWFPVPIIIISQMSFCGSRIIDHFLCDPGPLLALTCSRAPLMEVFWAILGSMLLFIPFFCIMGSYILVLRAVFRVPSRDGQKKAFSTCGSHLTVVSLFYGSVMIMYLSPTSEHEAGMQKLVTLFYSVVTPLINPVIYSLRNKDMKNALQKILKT
Sequence of Olfr740 (E9PV79 entry or part of it): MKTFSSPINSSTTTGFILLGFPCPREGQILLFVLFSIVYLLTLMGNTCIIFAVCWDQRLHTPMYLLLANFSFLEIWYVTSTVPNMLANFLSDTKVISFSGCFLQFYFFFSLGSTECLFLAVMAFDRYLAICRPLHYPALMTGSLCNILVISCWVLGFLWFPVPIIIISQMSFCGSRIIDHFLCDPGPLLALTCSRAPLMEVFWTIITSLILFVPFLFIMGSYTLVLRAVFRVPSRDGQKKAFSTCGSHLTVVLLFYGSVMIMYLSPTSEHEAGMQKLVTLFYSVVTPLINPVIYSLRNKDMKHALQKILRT
Sequence of Olfr738 (L7N1X7 entry or part of it): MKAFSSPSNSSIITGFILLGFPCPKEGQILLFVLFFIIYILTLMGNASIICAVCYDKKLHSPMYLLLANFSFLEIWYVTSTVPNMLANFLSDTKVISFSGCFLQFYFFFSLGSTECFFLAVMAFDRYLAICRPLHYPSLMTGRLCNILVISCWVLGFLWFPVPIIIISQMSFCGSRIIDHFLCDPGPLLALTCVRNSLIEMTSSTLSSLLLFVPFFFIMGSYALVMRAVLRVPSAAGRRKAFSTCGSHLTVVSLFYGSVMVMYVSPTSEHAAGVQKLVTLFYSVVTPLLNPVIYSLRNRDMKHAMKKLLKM
Sequence of Olfr743 (L7N1Y2 entry or part of it): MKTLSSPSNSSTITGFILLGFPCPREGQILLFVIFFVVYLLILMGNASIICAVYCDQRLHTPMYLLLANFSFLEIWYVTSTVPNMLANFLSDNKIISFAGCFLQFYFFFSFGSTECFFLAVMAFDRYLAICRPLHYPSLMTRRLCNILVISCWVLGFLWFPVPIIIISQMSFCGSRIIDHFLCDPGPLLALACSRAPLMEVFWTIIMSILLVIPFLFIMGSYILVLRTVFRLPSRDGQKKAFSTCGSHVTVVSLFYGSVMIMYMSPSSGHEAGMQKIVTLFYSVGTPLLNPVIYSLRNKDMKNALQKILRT

Turning to `C=C1CC[C@H]2O[C@]2(C)CC[C@@H]2[C@@H]1CC2(C)C`, the IC50 was 18.1 µM in test [1]; 13.4 µM in test [2]; 108 µM in test [3] (Table 22, first listing); 121 µM in test [3] (setting [17]); 99.1 µM in test [4] (Table 22, first listing (r7-r45), read-out: Olfr742 IC50); 121 µM in test [5]. Further, the IC50 in test [6] was 19.5 µM; in test [7], 192 µM; in test [8], 113 µM; in test [9] it was 85.9 µM; in [10] it was 61.3 µM. Also, the “Olfr738 % Inhibition” value came to 54.69% in test [1] (Table 22, first listing) and 38.36% in test [1] (setting [17]). Further, the Emax in test [2] (Table 22, first listing) turned out to be 203%; in [2] (setting [17]), 13.2%; in test [4] (Table 22, first listing), 63%; in test [4] (setting [17]), 91.7%. Also, the “Olfr741 % Inhibition” value is 59.56% in test [3] (Table 22, first listing) and 9.24% in [3] (setting [17]). In [5], the “Olfr748 % Inhibition” value was found to be 9.24%. Further, the “Olfr739 % Inhibition” value in test [6] (Table 22, first listing) worked out at 102.21%; in [6] (setting [17]), 55.20%. The “Olfr743 % Inhibition” value in test [7] came to 38.36%. In test [8], the “Olfr744 % Inhibition” value turned out to be 55.20%. Also, the “Olfr746 % Inhibition” value in test [9] stood at 13.17%. The “Olfr749 % Inhibition” value in [10] is on record as 91.71%.

Turning to `CC(=O)OC1C(C)(C)CCCC12C(C)C=CCC2C` (stereo not drawn), in test [11], the IC50 was determined as 72.3 µM and the Emax was 72%. Also, the “Sensory Performance (%)” value in test [12] worked out at 43%.

With `CC(=O)OC1C(C)(C)CCCC12CC(C)C(C)C2` (stereo not drawn), in test [11], the IC50 stood at 51.4 µM and the Emax turned out to be 62%. Moreover, the “Sensory Performance (%)” value in test [12] came out at 50%.

For `CC1(C)CCC[C@]2(C)CC(=O)CC[C@@H]12` (racemic) [(+−)-perhydro-5,5,8A-trimethyl-2-trans-naphthalenone], the “% Earthy/Moss Odor” value in test [13] was determined as 45.20%. In addition, the “% Mushroom/Earthy/Fungal Odor” value in [14] turned out to be 30.80%. Moreover, the 50% inhibitory concentration (IC50) came to 96.7 µM in test [15]; 2.74 µM in test [1]; 1.96 µM in test [2]; 148 µM in [3] (Table 22, first listing); 106 µM in [5]; 13.9 µM in [6]. Also, the half-inhibitory concentration (IC50) in test [7] stood at 264 µM; in test [8] it was 74.7 µM; in [9], 308 µM; in test [10] it was 41.5 µM; in test [16] (1-octen-3-ol at EC80), 63.2 µM. For the same molecule, the “Inhibition(%)” value in [15] came to 71%. For the same molecule, the “Olfr738 % Inhibition” value in test [1] (Table 22, first listing) was determined as 101.72%. Further, in test [2] (Table 22, first listing), the Emax stood at 127%. Moreover, the “Olfr741 % Inhibition” value in test [3] (Table 22, first listing) is 96.86%. Further, the “Olfr748 % Inhibition” value in test [5] amounted to 65.60%. The “Olfr739 % Inhibition” value in test [6] (Table 22, first listing) is recorded as 68.44%. Besides, the “Olfr743 % Inhibition” value in test [7] amounted to 123.10%. In test [8], the “Olfr744 % Inhibition” value came to 107.89%. In addition, in test [9], the “Olfr746 % Inhibition” value was determined as 81.36%. Besides, the “Olfr749 % Inhibition” value in test [10] amounted to 96.98%. For the same molecule, the “% Inhibition” value in [16] (maximum inhibition normalized to baseline agonist activity) is on record as 102.97%.

With `C=C(C)CC1(CC(=C)C)CCCC(C)(C)C1=O` [2,2-dimethyl-6,6-bis(2-methylprop-2-enyl)cyclohexan-1-one], in test [11], the IC50 was determined as 46.6 µM and the Emax worked out at 103%. Also, the “Sensory Performance (%)” value in [12] amounted to 50%.

Turning to `CC1=C(C)CC2(CCCC(C)(C)C2O)C1` (stereo not drawn) [2,3,9,9-tetramethylspiro[4.5]dec-2-en-10-ol], in test [11], half-maximal inhibition (IC50) was put at 78.7 µM and the Emax is 16%. Moreover, in test [12], the “Sensory Performance (%)” value came out at 60%.

On to `CC1=C(C)CC2(CCCC(C)(C)C2=O)C1` [2,3,9,9-tetramethylspiro[4.5]dec-2-en-10-one], for which the “Sensory Performance (%)” value in test [12] was 56%.

Regarding `CC(=O)OC1C(C)(C)CCCC12CC(C)=C(C)C2` (stereo not drawn) [(2,3,9,9-tetramethylspiro[4.5]dec-2-en-10-yl) acetate], in [11], the IC50 is greater than 600 µM and the Emax came out at 116%. Moreover, the “Sensory Performance (%)” value in test [12] was determined as 40%.

One may read the IC50 as the concentration at which inhibition is half-maximal. As usually defined, the % Inhibition is the relative decrease from the control value, in per cent.

These data come from patent publication US20230233425A1, “USE OF VOLATILE COMPOSITIONS TO LIMIT OR ELIMINATE THE PERCEPTION OF MALODOR” (Firmenich SA, priority 2017, published 2023).
